Measured values from patent US12122785B2, “Substituted pyridines, pyridazines, pyrimidines, and 1,2,4-triazines as TYK2 inhibitors” (Sudo Biosciences Limited, priority 2021, dated 2024).

Tests used:
JAK2 kinase domain (JH1) = target: T1, JAK2 kinase domain (JH1) (Homo sapiens, UniProt O60674); assay: HTRF-based selectivity assay, JAK2 catalytic domain; assay type: biochemical; conditions: 14.7 μM ATP
T1 construct: recombinant purified His or GST-tagged catalytic domain for each enzyme; made in house
T1 sequence (O60674 849-1124 limits assumed): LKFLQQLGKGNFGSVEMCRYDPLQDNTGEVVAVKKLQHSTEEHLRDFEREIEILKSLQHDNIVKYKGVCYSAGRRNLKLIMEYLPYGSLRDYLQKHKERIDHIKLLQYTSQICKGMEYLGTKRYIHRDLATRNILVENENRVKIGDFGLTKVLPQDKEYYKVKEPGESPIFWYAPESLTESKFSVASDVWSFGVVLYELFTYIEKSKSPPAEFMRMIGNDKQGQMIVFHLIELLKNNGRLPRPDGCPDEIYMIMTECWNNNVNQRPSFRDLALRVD
Experimental: (§1) Example B-2: HTRF-Based Selectivity Assay
(§2) The ability of compounds to inhibit the activity of JAK1, JAK2, JAK3 and TYK2 is measured using a recombinant purified His or GST-tagged catalytic domain for each enzyme (JAK1, JAK2 and TYK2 are generated in-house; JAK3 was purchased from Carna biosciences, Cat #08-046) in an HTRF format biochemical assay. The reactions employs a commercial peptide substrate from Cisbio (Cat #62TK0PEC). The basic assay protocol is as follows: first, 2.5 μL of diluted compounds (4×) in DMSO are dispensed into a 384-well Optiplate. Next, 2.5 μL of enzyme (final concentrations for enzymes are: TYK2—700 ng/mL, JAK1—80.6 ng/mL, JAK2—2.1 ng/mL and JAK3—171.8 ng/mL) is added and incubated at RT for 5-20 min. Finally, 5 μl of mixture of 2×ATP [Final concentration 20 μM for TYK2, 21.43 μM for JAK1, 14.7 μM for JAK2 and 2.12 μM for JAK3]+2× Substrate [Final concentration 217 nM for TYK2, 454.7 nM for JAK1, 200 nM for JAK2 and 257.4 nM for JAK3] is added to 384 well Optiplate. Composition of Kinase assay buffer used in the assay is as follows: HEPES 50 mM, EGTA 1 mM, MgCl2 10 mM, DTT 2 mM, Tween-20 0.01% and water. Then the plates are shaken and then incubated at 26.5° C. for 60 min.

JAK1 kinase domain (JH1) = target: T2, JAK1 kinase domain (JH1) (Homo sapiens, UniProt P23458); assay: HTRF-based selectivity assay, JAK1 catalytic domain; assay type: biochemical; conditions: 21.43 μM ATP, read-out: JAK-JHI (IC50)
T2 construct: recombinant purified His or GST-tagged catalytic domain for each enzyme; made in house
T2 sequence (P23458 875-1153 limits assumed): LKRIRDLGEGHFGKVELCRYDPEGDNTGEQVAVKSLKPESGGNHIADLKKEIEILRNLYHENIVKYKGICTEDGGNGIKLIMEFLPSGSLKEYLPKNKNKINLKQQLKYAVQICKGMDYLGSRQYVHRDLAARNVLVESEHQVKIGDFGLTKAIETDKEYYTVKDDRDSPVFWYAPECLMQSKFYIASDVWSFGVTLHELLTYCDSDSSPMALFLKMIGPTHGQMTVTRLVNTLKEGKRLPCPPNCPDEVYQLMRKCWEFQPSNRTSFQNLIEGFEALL
Experimental: as §1, §2

[1] = tested on: TYK2 pseudokinase (JH2); IFNα-stimulated HEK-Blue IFNα/β cells; assay: HEK-Blue IFNα/β reporter assay (STAT1-inducible SEAP) for profiling TYK2 pseudokinase (JH2) inhibition; assay type: cell-based; conditions: 1 ng/mL human recombinant IFNα, SEAP readout, read-out: IFNα (TYK2 inhibitory activity, IC50)
Experimental: (§3) Example B-1: HEK-Blue™ IL-23 and IFNα/β Reporter Assays for Profiling TYK2 Pseudokinase (JH2) Inhibition
(§4) HEK-Blue™ IL-23 and IFNα/β cells with a stably-integrated cytokine receptor and STAT3 or STAT1 express STAT-inducible secreted embryonic alkaline phosphatase (SEAP) reporter gene upon cytokine stimulation. These cells are plated in DMEM (Gibco) containing 10% heat-inactivated FBS (Gibco) and 100 U/mL PenStrep (Gibco) at 37° C. under 5% CO2 conditions for 20-22 hours. The cells are then pretreated with serially diluted test compounds for 60 min prior to stimulation with either 10 ng/mL human recombinant IL-23 (Miltenyl Biotech) or 1 ng/mL human recombinant IFNα (InvivoGen) for 22-24 hours for IL-23 or 16-18 h for IFNα. SEAP induction is measured using the QUANTI Blue™ Solution (InvivoGen) according to the manufacturer's instructions.

TYK2 kinase domain (JH1) = target: T3, TYK2 kinase domain (JH1) (Homo sapiens, UniProt P29597); assay: HTRF-based selectivity assay, TYK2 catalytic domain; assay type: biochemical; conditions: 20 μM ATP
T3 construct: recombinant purified His or GST-tagged catalytic domain for each enzyme; made in house
T3 sequence (P29597 897-1176 limits assumed): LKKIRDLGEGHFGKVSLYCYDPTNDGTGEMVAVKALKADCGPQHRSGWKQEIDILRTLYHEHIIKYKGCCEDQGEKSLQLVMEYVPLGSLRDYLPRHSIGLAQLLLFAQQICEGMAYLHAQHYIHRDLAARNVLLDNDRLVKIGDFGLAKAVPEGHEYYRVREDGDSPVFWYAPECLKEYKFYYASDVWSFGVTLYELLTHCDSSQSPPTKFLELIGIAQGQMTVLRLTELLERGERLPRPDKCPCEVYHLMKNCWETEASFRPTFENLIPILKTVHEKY
Experimental: as §1, §2

[2] = tested on: TYK2 pseudokinase (JH2); IL-23-stimulated HEK-Blue IL-23 cells; assay: HEK-Blue IL-23 reporter assay (STAT3-inducible SEAP) for profiling TYK2 pseudokinase (JH2) inhibition; assay type: cell-based; conditions: 10 ng/mL human recombinant IL-23, SEAP readout, read-out: IL23 (TYK2 inhibitory activity, IC50)
Experimental: as §3, §4

[3] = tested on: IFNγ-stimulated HEK-Blue IFNγ reporter cells; assay: HEK-Blue IFNγ reporter assay (STAT1-inducible SEAP) for determining selectivity; assay type: cell-based; conditions: 50 ng/mL human recombinant IFNγ, 24 hours, read-out: IFN-γ SEAP selectivity assay IC50
Experimental: (§5) Example B-3: HEK-Blue™ IL-2 and IFNγ Reporter Assays for Determining Selectivity
(§6) HEK-Blue™ IL-2 and IFNγ reporter cells with a stably-integrated cytokine receptor and STAT5 or STAT1 express STAT-inducible secreted embryonic alkaline phosphatase (SEAP) reporter gene upon cytokine stimulation. These cells were plated in DMEM (Gibco) containing 10% heat-inactivated FBS (Gibco) and 100 U/mL PenStrep (Gibco) at 37° C. under 5% CO2 conditions for 20-22 hours. The cells were then pretreated with serially diluted test compounds for 60 min prior to stimulation with either 4 ng/mL human recombinant IL-2 (Miltenyl Biotech) or 50 ng/mL human recombinant IFNγ (InvivoGen) for 24 hours. SEAP induction was measured using the QUANTI-Blue™ Solution (InvivoGen) according to the manufacturer's instructions.

[4] = tested on: IL-2-stimulated HEK-Blue IL-2 reporter cells; assay: HEK-Blue IL-2 reporter assay (STAT5-inducible SEAP) for determining selectivity; assay type: cell-based; conditions: 4 ng/mL human recombinant IL-2, 24 hours
Experimental: as §5, §6

Row | Compound | IC50 (JAK2 kinase domain (JH1)) [nM] | IC50 (JAK1 kinase domain (JH1)) [nM] | IC50 [1] [nM] | IC50 (TYK2 kinase domain (JH1)) [nM] | IC50 [2] [nM] | IC50 [3] [nM] | IC50 [4] [nM]
1 | [2H]C([2H])([2H])NC(=O)c1cnc(NC(=O)NC)cc1Nc1cccc2c1N(C)Cc1cn(C)nc1-2 [Compound 25, 4-((2,5-dimethyl-4,5-dihydro-2H-pyrazolo[4,3-c]quinolin-6-yl)amino)-N-(methyl-d3)-6-(3-methylureido)nicotinamide] | > 1000 | > 1000 | < 30 | > 1000 | < 30 | > 1000 | > 1000
2 | [2H]C([2H])([2H])NC(=O)c1nnc(NC(=O)C2CC2)cc1Nc1cccc2c1N(C)C([2H])([2H])c1cc(C)nn1-2 [Compound 56, 6-(cyclopropanecarboxamido)-4-((2,5-dimethyl-4,5-dihydropyrazolo[1,5-a]quinoxalin-6-yl-4,4-d2)amino)-N-(methyl-d3)pyridazine-3-carboxamide] | – | – | < 30 | – | < 30 | 30 to 300 | > 1000
3 | [2H]C([2H])([2H])NC(=O)c1cnc(NC(=O)C2CC2)cc1Nc1cccc2c1N(C)C([2H])([2H])c1cc(C)nn1-2 [Compound 57, 6-(cyclopropanecarboxamido)-4-((2,5-dimethyl-4,5-dihydropyrazolo[1,5-a]quinoxalin-6-yl-4,4-d2)amino)-N-(methyl-d3)nicotinamide] | – | – | < 30 | – | < 30 | 30 to 300 | > 1000
4 | [2H]C([2H])([2H])NC(=O)c1nnc(NC(=O)C2CC2)cc1Nc1cccc2c1N(C)C([2H])([2H])c1ccnn1-2 [Compound 58, 6-(cyclopropanecarboxamido)-N-(methyl-d3)-4-((5-methyl-4,5-dihydropyrazolo[1,5-a]quinoxalin-6-yl-4,4-d2)amino)pyridazine-3-carboxamide] | – | – | < 30 | – | < 30 | 300 to 1000 | > 1000
5 | [2H]C([2H])([2H])NC(=O)c1cnc(NC(=O)C2CC2)cc1Nc1cccc2c1N(C)C([2H])([2H])c1ccnn1-2 [Compound 59, 6-(cyclopropanecarboxamido)-N-(methyl-d3)-4-((5-methyl-4,5-dihydropyrazolo[1,5-a]quinoxalin-6-yl-4,4-d2)amino)nicotinamide] | – | – | < 30 | – | < 30 | 30 to 300 | > 1000
6 | [2H]C([2H])([2H])NC(=O)c1cnc(N2CCN(C(C)C)C2=O)cc1Nc1cccc2c1N(C)C([2H])([2H])c1cn(C)nc1-2 [Compound 63, 4-((2,5-dimethyl-4,5-dihydro-2H-pyrazolo[4,3-c]quinolin-6-yl-4,4-d2)amino)-6-(3-isopropyl-2-oxoimidazolidin-1-yl)-N-(methyl-d3)nicotinamide] | – | – | 30 to 300 | – | < 30 | > 1000 | > 1000
7 | [2H]C([2H])([2H])NC(=O)c1nnc(NC(=O)C2CC2)cc1Nc1nccc2c1N(C([2H])([2H])[2H])Cc1cn(C)nc1-2 [Compound 67, 6-(cyclopropanecarboxamido)-N-(methyl-d3)-4-((2-methyl-5-(methyl-d3)-4,5-dihydro-2H-pyrazolo[4,3-c][1,7]naphthyridin-6-yl)amino)pyridazine-3-carboxamide] | > 1000 | > 1000 | < 30 | > 1000 | < 30 | – | –
8 | [2H]C([2H])([2H])NC(=O)c1cnc(NC(=O)C2CC2)cc1Nc1nccc2c1N(C)Cc1cc(C)nn1-2 [Compound 71, 6-(cyclopropanecarboxamido)-4-((2,5-dimethyl-4,5-dihydropyrazolo[1,5-a]pyrido[3,4-e]pyrazin-6-yl)amino)-N-(methyl-d3)nicotinamide] | – | – | < 30 | – | < 30 | > 1000 | > 1000
9 | [2H]C([2H])([2H])NC(=O)c1nnc(NC(=O)C2CC2)cc1Nc1nccc2c1N(C)C([2H])([2H])c1cc(C)nn1-2 [Compound 73, 6-(cyclopropanecarboxamido)-4-((2,5-dimethyl-4,5-dihydropyrazolo[1,5-a]pyrido[3,4-e]pyrazin-6-yl-4,4-d2)amino)-N-(methyl-d3)pyridazine-3-carboxamide] | – | – | < 30 | – | < 30 | 30 to 300 | > 1000
10 | [2H]C([2H])([2H])NC(=O)c1nnc(NC(=O)NC)cc1Nc1nccc2c1N(C)C([2H])([2H])c1cn(C)nc1-2 [Compound 74, 4-((2,5-dimethyl-4,5-dihydro-2H-pyrazolo[4,3-c][1,7]naphthyridin-6-yl-4,4-d2)amino)-N-(methyl-d3)-6-(3-methylureido)pyridazine-3-carboxamide] | – | – | < 30 | – | < 30 | 30 to 300 | > 1000
11 | [2H]C([2H])([2H])NC(=O)c1nnc(NC(=O)N(C)C)cc1Nc1nccc2c1N(C)C([2H])([2H])c1cn(C)nc1-2 [Compound 75, 4-((2,5-dimethyl-4,5-dihydro-2H-pyrazolo[4,3-c][1,7]naphthyridin-6-yl-4,4-d2)amino)-6-(3,3-dimethylureido)-N-(methyl-d3)pyridazine-3-carboxamide] | – | – | 30 to 300 | – | < 30 | > 1000 | > 1000
12 | [2H]C([2H])([2H])NC(=O)c1cnc(NC(=O)C2CC2)cc1Nc1nccc2c1N(C)C([2H])([2H])c1cc(C)nn1-2 [Compound 76, 6-(cyclopropanecarboxamido)-4-((2,5-dimethyl-4,5-dihydropyrazolo[1,5-a]pyrido[3,4-e]pyrazin-6-yl-4,4-d2)amino)-N-(methyl-d3)nicotinamide] | – | – | < 30 | – | < 30 | 300 to 1000 | > 1000
13 | [2H]C([2H])([2H])NC(=O)c1cnc(NC(=O)C2CC2)cc1Nc1nccc2c1N(C)C([2H])([2H])c1cn(C)nc1-2 [Compound 77, 6-(cyclopropanecarboxamido)-4-((2,5-dimethyl-4,5-dihydro-2H-pyrazolo[4,3-c][1,7]naphthyridin-6-yl-4,4-d2)amino)-N-(methyl-d3)nicotinamide] | – | – | < 30 | – | < 30 | 300 to 1000 | > 1000
14 | [2H]C([2H])([2H])NC(=O)c1nnc(NC(=O)NC)cc1Nc1nccc2c1N(C)Cc1cc(C)nn1-2 [Compound 79, 4-((2,5-dimethyl-4,5-dihydropyrazolo[1,5-a]pyrido[3,4-e]pyrazin-6-yl)amino)-N-(methyl-d3)-6-(3-methylureido)pyridazine-3-carboxamide] | – | – | 30 to 300 | – | < 30 | > 1000 | > 1000
